≈ marks a conversion by molar mass, not a printed value.
How the values were obtained:
Ebolavirus [1] = test: Antiviral activity against Ebolavirus isolate Makona infected in human HeLa cells assessed as inhibition of viral infection pretreated for 2 hrs before viral infection and measured after 48 hrs by EboV GP immunostaining based method; assay type: functional, cell-based; details: Orthoebolavirus
[2] = Half life in mouse liver microsomes at 1 uM after 60 mins in presence of NADPH by LC-MS/MS analysis; assay type: ADME, microsome
Ebolavirus [3] = test: Antiviral activity against recombinant VSV pseudotyped Ebolavirus expressing M-GFP infected in African green monkey Vero E6 cells assessed as inhibition of viral infection pre-incubated for 2 hrs before infection and measured after 8 to 12 hrs in presence of 50% NHS by fluorescence microscopic method; assay type: functional, Vero C1008; details: Orthoebolavirus, Vero C1008
physchem = details: phosphate buffered saline, pH 7.4
[4] = Half life in human liver microsomes at 1 uM after 60 mins in presence of NADPH by LC-MS/MS analysis; assay type: ADME, microsome
Ebolavirus [5] = test: Antiviral activity against VSV pseudotyped Ebolavirus expressing M-GFP infected in African green monkey Vero E6 cells assessed as inhibition of viral infection pre-incubated for 2 hrs before infection and measured after 8 to 12 hrs by fluorescence microscopic method; assay type: functional, Vero C1008
[6] = Stability of the compound in mouse plasma at 10 uM assessed as compound remaining after 4 hrs by LC-MS/MS analysis; assay type: ADME, cell-free; details: read-out: Stability
in vitro = details: mouse, plasma
[7] = Half life in mouse liver microsomes at 1 uM after 60 mins in presence of NADPH and ritonavir by LC-MS/MS analysis; assay type: ADME, microsome; details: with ritonavir (concentration not stated)

Row | SMILES | IC50 (Ebolavirus [5]; Orthoebolavirus, Vero C1008) | also measured
1 | COC(=O)c1ccc(COc2ccccc2CN2CCN(C(=O)CNC(=O)CC34CC5CC(CC(C5)C3)C4)CC2)cc1 | 13 nM | EC50 (Ebolavirus [1]): 160 nM; half-life at 1 µM [2]: 1 min; IC50 (Ebolavirus [3]): 64 nM; solubility kinetic (physchem): 5.3 µM (≈ 3.04 µg/mL); half-life at 1 µM [4]: 1.2 min
2 | O=C(CC12CC3CC(CC(C3)C1)C2)NCC(=O)N1CCN(Cc2cc(Br)ccc2O)CC1 | 500 nM | –
3 | Nc1ccc(Br)cc1CN1CCN(C(=O)CNC(=O)CC2CCC(F)(F)CC2)CC1 | 1740 nM | –
4 | CNS(=O)(=O)c1ccc(COc2ccccc2CN2CCN(C(=O)CNC(=O)CC34CC5CC(CC(C5)C3)C4)CC2)cc1 | 300 nM | –
5 | O=C(CC12CC3CC(CC(O)(C3)C1)C2)NCC(=O)N1CCN(Cc2ccccc2OCc2ccc(Br)cc2)CC1 | 500 nM | –
6 | COC(=O)c1ccc(Oc2cc(Cl)cc(CN3CCN(C(=O)CNC(=O)CC45CC6CC(CC(C6)C4)C5)CC3)c2)cc1 | 16 nM | –
7 | O=C(CC12CC3(F)CC(F)(CC(F)(C3)C1)C2)NCC(=O)N1CCN(Cc2ccccc2OCc2ccc(Br)cc2)CC1 | 200 nM | half-life at 1 µM [2]: 1 min
8 | O=C(CC12CC3CC(CC(C3)C1)C2)NCC(=O)N1CCN(Cc2cc(Cl)cc(F)c2F)CC1 | 670 nM | –
9 | COC(=O)c1ccc(/C=C/c2ccccc2CN2CCN(C(=O)CNC(=O)CC34CC5CC(CC(C5)C3)C4)CC2)cc1 | 1500 nM | –
10 | O=C(CC12CC3CC(CC(C3)C1)C2)NCC(=O)N1CCN(Cc2cc(Cl)c(F)cc2F)CC1 | 370 nM | –
11 | COC(=O)c1ccc(COc2ccccc2CN2CCN(C(=O)CNC(=O)CC3CCC(F)(F)CC3)CC2)cc1 | 50 nM | –
12 | COC(=O)c1ccc(COc2ccccc2CN2CCN(C(=O)CNC(=O)CC3CC(F)(F)C3)CC2)cc1 | 300 nM | –
13 | O=C(CC1CCC(F)(F)CC1)NCC(=O)N1CCN(Cc2cc(Br)ccc2O)CC1 | 790 nM | –
14 | COC(=O)c1ccc(COc2ccc(Cl)cc2CN2CCN(C(=O)CNC(=O)CC34CC5CC(CC(C5)C3)C4)CC2)cc1 | 1.1 nM | –
15 | CC1(CC(=O)NCC(=O)N2CCN(Cc3ccccc3OCc3ccc(Br)cc3)CC2)CCCCC1 | 520 nM | –
16 | NC(=O)c1ccc(Cl)cc1CN1CCN(C(=O)CNC(=O)CC23CC4CC(CC(C4)C2)C3)CC1 | 1900 nM | –
17 | O=C(CC12CC3CC(CC(C3)C1)C2)NCC(=O)N1CCN(Cc2cc(Cl)ccc2C(F)(F)F)CC1 | > 2000 nM | –
18 | NS(=O)(=O)c1ccc(COc2ccccc2CN2CCN(C(=O)CNC(=O)CC34CC5CC(CC(C5)C3)C4)CC2)cc1 | 350 nM | –
19 | O=C(CC1CCC(F)(F)CC1)NCC(=O)N1CCN(Cc2cc(Cl)ccc2NC(=O)C2CC2)CC1 | 3500 nM | –
20 | O=C(CC12CC3CC(C1)CC(c1ccc(O)c([N+](=O)[O-])c1)(C3)C2)NCC(=O)N1CCN(Cc2ccccc2OCc2ccc(Br)cc2)CC1 | 600 nM | –
21 | COC(=O)c1ccc(COc2ccc(OC)cc2CN2CCN(C(=O)CNC(=O)CC34CC5CC(CC(C5)C3)C4)CC2)cc1 | 1400 nM | –
22 | Nc1ccc(Cl)cc1CN1CCN(C(=O)CNC(=O)CC23CC4CC(CC(C4)C2)C3)CC1 | 90 nM | –

Row | SMILES | IC50 (Ebolavirus [5]; Orthoebolavirus, Vero C1008) | also measured
23 | COC(=O)c1cccc(-c2ccc(Cl)cc2CN2CCN(C(=O)CNC(=O)CC34CC5CC(CC(C5)C3)C4)CC2)c1 | 250 nM | –
24 | O=C(CC12CC3CC(CC(C3)C1)C2)NCC(=O)N1CCN(Cc2cc(F)c(F)cc2Cl)CC1 | 1450 nM | –
25 | COC(=O)c1ccc(COc2ccc(Cl)cc2CN2CCN(C(=O)CNC(=O)CC3CCC(F)(F)CC3)CC2)cc1 | 15 nM | –
26 | O=C(CC12CC3CC(CC(C3)C1)C2)NCC(=O)N1CCN(Cc2cc(Br)ccc2F)CC1 | 1200 nM | –
27 | COC(=O)c1ccc(COc2ccc(F)cc2CN2CCN(C(=O)CNC(=O)CC3CCC(F)(F)CC3)CC2)cc1 | 18 nM | –
28 | O=C(CC1CCC(F)(F)CC1)NCC(=O)N1CCN(Cc2cc(Cl)cc(F)c2O)CC1 | 2800 nM | –
29 | O=C(CC12CC3CC(CC(C3)C1)C2)NCC(=O)N1CCN(Cc2ccccc2OCc2ccc(Br)cc2)CC1 | 220 nM | –
30 | O=C(CC12CC3CC(CC(C3)C1)C2)NCC(=O)N1CCN(Cc2ccccc2OCc2ccc(-c3ncco3)cc2)CC1 | 270 nM | half-life at 1 µM [2]: 1 min; remaining at 4 h, 10 µM [6]: 37%; fraction unbound at 6 h (in vitro): 0.003; solubility kinetic (physchem): 5 µM (≈ 2.91 µg/mL)
31 | O=C(CC12CC3CC(CC(C3)C1)C2)NCC(=O)N1CCN(Cc2cc(Cl)ccc2O)CC1 | 200 nM | –
32 | O=C(CC1CCC(F)(F)CC1)NCC(=O)N1CCN(Cc2cc(Cl)cc(Cl)c2O)CC1 | 3600 nM | –
33 | Nc1ccc(Cl)cc1CN1CCN(C(=O)CNC(=O)CC2CCC(F)(F)CC2)CC1 | 340 nM | remaining at 4 h, 10 µM [6]: 94%; fraction unbound at 6 h (in vitro): 0.131; solubility kinetic (physchem): > 100 µM
34 | NC(=O)c1ccc(COc2ccccc2CN2CCN(C(=O)CNC(=O)CC34CC5CC(CC(C5)C3)C4)CC2)cc1 | 700 nM | –
35 | COC(=O)c1ccc(COc2ccccc2CN2CCN(C(=O)CNC(=O)CC34CC5CC(C3)CC(C(=O)O)(C5)C4)CC2)cc1 | > 2000 nM | –
36 | O=C(CC12CC3CC(CC(Br)(C3)C1)C2)NCC(=O)N1CCN(Cc2ccccc2OCc2ccc(Br)cc2)CC1 | 600 nM | –
37 | CN(C)S(=O)(=O)c1ccc(COc2ccccc2CN2CCN(C(=O)CNC(=O)CC34CC5CC(CC(C5)C3)C4)CC2)cc1 | 400 nM | –
38 | CC(=O)Nc1ccc(Cl)cc1CN1CCN(C(=O)CNC(=O)CC23CC4CC(CC(C4)C2)C3)CC1 | 950 nM | –
39 | N#Cc1ccc(Br)cc1CN1CCN(C(=O)CNC(=O)CC23CC4CC(CC(C4)C2)C3)CC1 | 310 nM | –
40 | O=C(CC12CC3CC(CC(C3)C1)C2)NCC(=O)N1CCN(Cc2cc(Cl)ccc2F)CC1 | 360 nM | –
41 | COC(=O)c1ccc(COc2ccc(Br)cc2CN2CCN(C(=O)CNC(=O)CC34CC5CC(CC(C5)C3)C4)CC2)cc1 | 9 nM | –
42 | CS(=O)(=O)c1ccc(COc2ccc(Cl)cc2CN2CCN(C(=O)CNC(=O)CC3CCC(F)(F)CC3)CC2)cc1 | – | remaining at 4 h, 10 µM [6]: 30%; IC50 (Ebolavirus [3]): 38 nM; half-life at 1 µM [7]: > 120 min
43 | COC(=O)c1ccc(COc2ccc(C#N)cc2CN2CCN(C(=O)CNC(=O)CC34CC5CC(CC(C5)C3)C4)CC2)cc1 | 50 nM | –
44 | O=C(CC12CC3CC(CC(C3)C1)C2)NCC(=O)N1CCN(Cc2cc(Br)ccc2Cl)CC1 | 2200 nM | –

Row | SMILES | IC50 (Ebolavirus [5]; Orthoebolavirus, Vero C1008) | also measured
45 | O=C(CC1CCC(F)(F)CC1)NCC(=O)N1CCN(Cc2cc(Cl)ccc2O)CC1 | 470 nM | –
46 | O=C(CC1CCC(F)(F)CC1)NCC(=O)N1CCN(Cc2cc(Cl)ccc2NS(=O)(=O)C2CC2)CC1 | 2200 nM | –
47 | O=C(CC12CC3CC(C1)CC(c1ccccc1)(C3)C2)NCC(=O)N1CCN(Cc2ccccc2OCc2ccc(Br)cc2)CC1 | 700 nM | –
48 | O=C(CC12CC3CC(CC(C3)C1)C2)NCC(=O)N1CCN(Cc2cc(Cl)cc(Cl)c2Cl)CC1 | 430 nM | –
49 | COC(=O)c1ccc(CCc2ccccc2CN2CCN(C(=O)CNC(=O)CC34CC5CC(CC(C5)C3)C4)CC2)cc1 | 20 nM | –
50 | O=C(CC12CC3CC(CC(Cl)(C3)C1)C2)NCC(=O)N1CCN(Cc2ccccc2OCc2ccc(Br)cc2)CC1 | 500 nM | –
51 | O=C(CC12CC3CC(CC(C3)C1)C2)NCC(=O)N1CCN(Cc2c(F)ccc(Cl)c2F)CC1 | 1350 nM | –
52 | COC(=O)c1ccc(COc2ccccc2CN2CCN(C(=O)CNC(=O)CC3(C)CCCCC3)CC2)cc1 | 80 nM | –
53 | COC(=O)c1ccc(COc2ccc(F)cc2CN2CCN(C(=O)CNC(=O)CC34CC5CC(CC(C5)C3)C4)CC2)cc1 | 1.4 nM | –
54 | COC(=O)c1ccc(COc2ccc(C)cc2CN2CCN(C(=O)CNC(=O)CC34CC5CC(CC(C5)C3)C4)CC2)cc1 | 12 nM | –
55 | COC(=O)c1ccc(COc2ccc(Cl)cc2CN2CCN(C(=O)CNC(=O)C(F)(F)C(F)F)CC2)cc1 | 160 nM | –
56 | CCC1(CC)CC1C(=O)NCC(=O)N1CCN(Cc2cc(Cl)ccc2N)CC1 (racemic) | 160 nM | –
57 | O=C(NCC(=O)N1CCN(Cc2cc(Cl)ccc2O)CC1)C1CC12CCC(F)(F)CC2 (racemic) | 180 nM | –
58 | [2H]C([2H])(c1cc(Cl)ccc1N)N1CCN(C(=O)CNC(=O)C2CC23CCC(F)(F)CC3)CC1 (racemic) | – | IC50 (Ebolavirus [5]; vero c1008): 94 nM
59 | Nc1ccc(Cl)cc1CN1CCN(C(=O)CNC(=O)C2CC23CCC3)CC1 (racemic) | 2500 nM | –
60 | Nc1ccc(Cl)cc1CN1CCN(C(=O)CNC(=O)C2CC23CCC(F)(F)CC3)CC1 (racemic) | 100 nM | –
61 | Nc1ccc(Cl)cc1CN1CCN(C(=O)CNC(=O)C2CC23CCCC3)CC1 (racemic) | 240 nM | –
62 | Nc1ccc(C2CC2)cc1CN1CCN(C(=O)CNC(=O)C2CC23CCC(F)(F)CC3)CC1 (racemic) | 4200 nM | –
63 | Nc1ccc(Cl)cc1C(=O)N1CCN(C(=O)CNC(=O)C2CC23CCC(F)(F)CC3)CC1 (racemic) | > 5000 nM | –
64 | [2H]C([2H])(c1cc(Cl)ccc1N)N1CCN(C(=O)CNC(=O)C2CC23CCC(F)(F)CC3)CC1 (stereo in doubt; 3-19) | – | IC50 (Ebolavirus [5]; vero c1008): 180 nM
